From patent publication US12252488B2 (Nimbus Saturn, Inc., priority 2021, dated 2025)

molecular target: T1, HPK1 (Homo sapiens, UniProt Q92918); test: HPK1 biochemical enzyme assay (microfluidic mobility shift assay); conditions: 1000 uM (1 mM) ATP; Caliper mobility shift; 1.5 nM HPK1; 30 min preincubation; read-out: HPK1 1000UMATP caliper IC50
T1 construct: purchased Invitrogen
Protocol: Example 33. HPK1 Biochemical Enzyme Assay
HPK1 biochemical enzyme assay: HPK1 enzyme inhibition was measured using a microfluidic mobility shift assay. Reactions were performed in a 384-well plate, containing 1.5 nM HPK1 (Invitrogen), in assay buffer (Carna Biosciences; pH 7.4). Test compounds were titrated in ten point curves (top final assay concentration 3 μM), and preincubated with enzyme/substrate mix for 30 min prior to initiation of the reaction by addition of ATP (1 mM final concentration) and substrate (1 μM final concentration; Carna Biosciences) diluted in assay buffer supplemented by MgCl2 (final assay concentration of 5 mM). Following 60 min incubation at RT, the reaction was terminated by addition of 60 μl/well termination buffer (Carna Biosciences) and signal determination using a Caliper EZ Reader (Perkin Elmer, UK).
The compound numbers correspond to the compound numbers in Table 1. Compounds having an activity designated as “A” provided an IC50≤100 nM; compounds having an activity designated as “B” provided an IC50>100 nM and ≤1,000 nM; compounds having an activity designated as “C” provided an IC50>1,000 nM.

T1 sequence (Q92918 whole entry): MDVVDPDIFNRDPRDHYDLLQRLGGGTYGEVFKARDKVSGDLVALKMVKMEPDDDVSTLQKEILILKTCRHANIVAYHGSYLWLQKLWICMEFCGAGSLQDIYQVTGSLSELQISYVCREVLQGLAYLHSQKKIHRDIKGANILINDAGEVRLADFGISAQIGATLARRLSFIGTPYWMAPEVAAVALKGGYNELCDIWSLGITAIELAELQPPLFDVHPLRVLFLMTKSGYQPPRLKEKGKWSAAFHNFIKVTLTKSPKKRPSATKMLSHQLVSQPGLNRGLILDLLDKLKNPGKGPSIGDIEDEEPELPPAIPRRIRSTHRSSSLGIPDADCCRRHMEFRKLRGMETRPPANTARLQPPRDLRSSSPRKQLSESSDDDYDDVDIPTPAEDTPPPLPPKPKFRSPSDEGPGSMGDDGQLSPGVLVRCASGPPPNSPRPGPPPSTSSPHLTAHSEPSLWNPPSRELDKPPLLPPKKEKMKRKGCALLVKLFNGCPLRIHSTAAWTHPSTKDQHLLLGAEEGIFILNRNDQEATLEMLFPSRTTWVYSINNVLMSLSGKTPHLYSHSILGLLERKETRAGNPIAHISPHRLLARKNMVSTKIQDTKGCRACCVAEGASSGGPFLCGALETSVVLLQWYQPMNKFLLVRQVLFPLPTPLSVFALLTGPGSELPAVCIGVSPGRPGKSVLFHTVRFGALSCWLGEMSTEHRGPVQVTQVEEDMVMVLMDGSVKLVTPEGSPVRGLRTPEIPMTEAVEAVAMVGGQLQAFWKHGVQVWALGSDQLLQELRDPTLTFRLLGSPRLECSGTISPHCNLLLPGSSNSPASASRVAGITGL

Row | IC50 [nM] | Structure (SMILES)
1 | 100 to 1000 | O=C(Nc1ccc(-c2cc(Nc3ccc(N4CCC(O)CC4)cn3)c3c(=O)[nH]ccc3n2)c(F)c1)C1CC2CCC1C2 (stereo not drawn) [I-179, N-[3-fluoro-4-[4-[[5-(4-hydroxy-1-piperidyl)-2-pyridyl]amino]-5-oxo-6H-1,6-naphthyridin-2-yl]phenyl] norbornane-2-carboxamide]
2 | 100 to 1000 | O=C(Nc1ccc(-c2cc(Nc3ccc(C4CC4)cn3)c3c(=O)[nH]ccc3n2)c(F)c1)C1CCCCC1 [I-212, N-[4-[4-[(5-cyclopropyl-2-pyridyl)amino]-5-oxo-6H-1,6-naphthyridin-2-yl]-3-fluoro-phenyl] cyclohexane-carboxamide]
3 | 100 to 1000 | COc1cc(-c2cc(Nc3ccc(C4CC4)cn3)c3c(=O)[nH]ccc3n2)c(F)cc1C(=O)N1CCCCC1 [I-198, 4-[(5-cyclopropyl-2-pyridyl)amino]-2-[2-fluoro-5-methoxy-4-(piperidine-1-carbonyl)phenyl]-6H-1,6-naphthyridin-5-one]
4 | 100 to 1000 | COc1cc(-c2cc(Nc3ccc(N4CCC(OC)CC4)cn3)c3c(=O)[nH]ccc3n2)c(F)cc1C(=O)N1CCCCC1 [I-209, 2-[2-fluoro-5-methoxy-4-(piperidine-1-carbonyl)phenyl]-4-[[5-(4-methoxy-1-piperidyl)-2-pyridyl]amino]-6H-1,6-naphthyridin-5-one]
5 | ≤ 100 | CCC1(C(=O)N(C)c2ccc(-c3cc(Nc4ccc(N5CCNCC5)cn4)c4c(=O)[nH]ccc4n3)c(F)c2)CCC1 [I-247, 1-ethyl-N-[3-fluoro-4-[5-oxo-4-[(5-piperazin-1-yl-2-pyridyl)amino]-6H-1,6-naphthyridin-2-yl]phenyl]-N-methyl-cyclobutane-carboxamide]
6 | ≤ 100 | CC1(C(=O)Nc2ccc(-c3cc(Nc4ccc(N5CCC(O)CC5)cn4)c4c(=O)[nH]ccc4n3)c(F)c2)COC1 [I-205]
7 | ≤ 100 | CCn1ccc(Nc2cc(-c3cc(OC)c(C(=O)N4CCCCC4)cc3F)nc3cc[nH]c(=O)c23)nc1=O [I-228, 4-((1-ethyl-2-oxo-1,2-dihydropyrimidin-4-yl)amino)-2-(2-fluoro-5-methoxy-4-(piperidine-1-carbonyl)phenyl)-1,6-naphthyridin-5(6H)-one]
8 | 100 to 1000 | COc1cc(-c2cc(Nc3ccc(N4CCNCC4)cn3)c3c(=O)[nH]ccc3n2)c(F)cc1C(=O)N1CCC1 [I-175, 2-[4-(azetidine-1-carbonyl)-2-fluoro-5-methoxy-phenyl]-4-[(5-piperazin-1-yl-2-pyridyl)amino]-6H-1,6-naphthyridin-5-one]
9 | ≤ 100 | O=C1Cc2cc(-c3cc(Nc4ccc(N5CCC(O)CC5)cn4)c4c(=O)[nH]ccc4n3)cnc2N1 [I-226, 4-[[5-(4-hydroxy-1-piperidyl)-2-pyridyl]amino]-2-(2-oxo-1,3-dihydro-pyrrolo[2,3-b]pyridin-5-yl)-6H-1,6-naphthyridin-5-one]
10 | > 1000 | O=c1[nH]ccc2nc(-c3ccc(OCc4ccncc4)cc3F)cc(Nc3cc(C4CCOC4)n[nH]3)c12 (stereo not drawn) [I-257, 2-[2-fluoro-4-(4-pyridyl-methoxy)phenyl]-4-[(3-THF-3-yl-1H-pyrazol-5-yl)amino]-6H-1,6-naphthyridin-5-one]
11 | ≤ 100 | C[C@@H]1COC[C@@H](C)N1c1ccc(Nc2cc(-c3ccc(NC(=O)C4CCCCC4)cc3F)nc3cc[nH]c(=O)c23)nc1 [I-191, N-[4-[4-[[5-[(3R,5R)-3,5-dimethyl-morpholin-4-yl]-2-pyridyl]amino]-5-oxo-6H-1,6-naphthyridin-2-yl]-3-fluoro-phenyl] cyclohexane-carboxamide]

Continued, compound first:

Row | Structure (SMILES) | IC50 [nM]
12 | CC(C)(C#N)c1ccc(F)c(-c2cc(Nc3ccc(N4CCC(O)CC4)cn3)c3c(=O)[nH]ccc3n2)c1 [I-104, 2-[4-fluoro-3-[4-[[5-(4-hydroxy-1-piperidyl)-2-pyridyl]amino]-5-oxo-6H-1,6-naphthyridin-2-yl]phenyl]-2-methyl-propane-nitrile] | > 1000
13 | COc1cc(-c2cc(Nc3ccc(C(=O)N4CCCC4)cc3)c3c(=O)[nH]ccc3n2)c(F)cc1C(=O)N1CCCCC1 [I-165, 2-[2-fluoro-5-methoxy-4-(piperidine-1-carbonyl)phenyl]-4-[4-(pyrrolidine-1-carbonyl)amino]-6H-1,6-naphthyridin-5-one] | 100 to 1000
14 | N#CC1CCN(C(=O)c2ccc(-c3cc(Nc4ccc(N5CCC(O)CC5)cn4)c4c(=O)[nH]ccc4n3)c(F)c2)CC1 [I-132, 1-[3-fluoro-4-[4-[[5-(4-hydroxy-1-piperidyl)-2-pyridyl]amino]-5-oxo-6H-1,6-naphthyridin-2-yl]benzoyl] piperidine-4-carbonitrile] | 100 to 1000
15 | O=c1[nH]ccc2nc(N3CCCC(O)C3)cc(Nc3ccc(N4CCC(O)CC4)cn3)c12 (stereo not drawn) [I-50, 2-(3-hydroxy-1-piperidyl)-4-[[5-(4-hydroxy-1-piperidyl)-2-pyridyl]amino]-6H-1,6-naphthyridin-5-one] | 100 to 1000
16 | O=C(NC1CCCCC1)c1ccc(-c2cc(Nc3ccc(N4CCC(O)CC4)cn3)c3c(=O)[nH]ccc3n2)c(F)c1 [I-139, N-cyclohexyl-3-fluoro-4-[4-[[5-(4-hydroxy-1-piperidyl)-2-pyridyl]amino]-5-oxo-6H-1,6-naphthyridin-2-yl] benzamide] | ≤ 100
17 | CC(=O)N1CCC(c2cc(Nc3ccc(N4CCC(O)CC4)cn3)c3c(=O)[nH]ccc3n2)CC1 [I-63, 2-(1-acetyl-4-piperidyl)-4-[[5-(4-hydroxy-1-piperidyl)-2-pyridyl]amino]-6H-1,6-naphthyridin-5-one] | 100 to 1000
18 | COc1cc(-c2cc(Nc3ccc(N4CCC(F)(F)CC4)cn3)c3c(=O)[nH]ccc3n2)c(F)cc1C(=O)N1CCCCC1 [I-169, 4-[[5-(4,4-difluoro-1-piperidyl)-2-pyridyl]amino]-2-[2-fluoro-5-methoxy-4-(piperidine-1-carbonyl)phenyl]-6H-1,6-naphthyridin-5-one] | 100 to 1000
19 | O=C(c1ccc(F)c(-c2cc(Nc3ccc(N4CCC(O)CC4)cn3)c3c(=O)[nH]ccc3n2)c1)N1CCC1 [I-95, 2-[5-(azetidine-1-carbonyl)-2-fluoro-phenyl]-4-[[5-(4-hydroxy-1-piperidyl)-2-pyridyl]amino]-6H-1,6-naphthyridin-5-one] | 100 to 1000
20 | CC(C)(O)c1cc(Nc2ccc(N3CCC(O)CC3)cn2)c2c(=O)[nH]ccc2n1 [I-38, 2-(1-hydroxy-1-methyl-ethyl)-4-[[5-(4-hydroxy-1-piperidyl)-2-pyridyl]amino]-6H-1,6-naphthyridin-5-one] | ≤ 100
21 | O=c1[nH]ccc2nccc(Nc3ccc(N4CCC(O)CC4)cn3)c12 [I-44, 4-[[5-(4-hydroxy-1-piperidyl)-2-pyridyl]amino]-6H-1,6-naphthyridin-5-one] | ≤ 100
22 | COC1CCCN(C(=O)c2ccc(-c3cc(Nc4ccc(N5CCC(O)CC5)cn4)c4c(=O)[nH]ccc4n3)c(F)c2)C1 (stereo not drawn) [I-133, 2-[2-fluoro-4-(3-methoxy-piperidine-1-carbonyl)phenyl]-4-[[5-(4-hydroxy-1-piperidyl)-2-pyridyl]amino]-6H-1,6-naphthyridin-5-one] | ≤ 100
23 | COc1cc(F)c(-c2cc(Nc3ccc(N4CCC(O)CC4)cn3)c3c(=O)[nH]ccc3n2)cc1C [I-55, 2-(2-fluoro-4-methoxy-5-methyl-phenyl)-4-[[5-(4-hydroxy-1-piperidyl)-2-pyridyl]amino]-6H-1,6-naphthyridin-5-one] | 100 to 1000
24 | CC(=O)NC1CCCN(c2cc(Nc3ccc(N4CCC(O)CC4)cn3)c3c(=O)[nH]ccc3n2)C1 (stereo not drawn) [I-78, N-[1-[4-[[5-(4-hydroxy-1-piperidyl)-2-pyridyl]amino]-5-oxo-6H-1,6-naphthyridin-2-yl]-3-piperidyl] acetamide] | > 1000
